Results on ten compounds are retold here after patent publication US20040231558A1, “Water-color ink” (priority 2001, published 2004).

Holding throughout (type): physicochemical
Series [1] in a line: Evaluation of light fastness-1 (OD value of printed portion after 100 hours xenon fadeometer). Particulars: ink prepared as in Example 1 from the salt named in the row; OD value of printed portion after 100 hours xenon fadeometer. As for the experimental part: (§1) The prepared ink was filled in an ink cartridge for a piezo-type ink-jet printer EM-930C (manufactured by Seiko Epson). The printing was performed with this printer, and the light fastness was evaluated. Further, the storage stability of the ink was evaluated.
(A)-1 Evaluation of Light Fastness-1
Printing density (OD value) was measured after irradiating a printed portion with light for 100 hours using a xenon fadeometer (manufactured by Suga Shikenki) to evaluate the light fastness.

Series [2] can be described thus: Evaluation of light fastness-2 (OD value of printed portion after 400 hours xenon fadeometer). Particulars: ink prepared as in Example 1 from the salt named in the row, OD value of printed portion after 400 hours xenon fadeometer. On the procedure:
as §1
(A)-2 Evaluation of Light Fastness-2
Printing density (OD value) was measured after irradiating a printed-portion with light for 400 hours using axenon fadeometer (manufactured by Suga Shikenki), and the light fastness was evaluated.

Series [3] can be described thus: Evaluation of moisture resistance (image-recorded paper at 40° C. and humidity 85%, visual observation). The note with it: image-recorded paper at 40° C. and humidity 85%, visually observed.
Series [4] is described as follows: Evaluation of storage stability of ink (40° C. for 3 months, insoluble matter and clogging). Particulars: recording liquid stored at 40° C. for 3 months; insoluble matter and clogging. On the procedure:
as §1
(C) Evaluation of Storage Stability of Ink:
After a recording liquid was stored at 40° C. for 3 months, it was observedwhether or not an insoluble matterwas precipitated, and whether or not clogging occurred after continuous recording with the foregoing printer for a long period of time.

As for `Cc1c(N=Nc2cc(C(=O)O)ccc2C(=O)O)c(O)n(CCn2c(=O)c3cc4c(=O)n(CCn5c(O)c(N=Nc6cc(C(=O)O)ccc6C(=O)O)c(C)c(C#N)c5=O)c(=O)c4cc3c2=O)c(=O)c1C#N` [Compound 342], in series [1], the “(A)-1 light fastness-1” value was “⊚”. In addition, in series [2], the “(A)-2 light fastness-2” value is recorded as “⊚”. The “(B) moisture resistance” value in series [3] is listed as “⊚”. Further, the “(C) storage stability” value in series [4] is on record as “◯”.
On to `CCc1c(N=Nc2cc(C(=O)O)ccc2C(=O)O)c(O)n(CCNc2nc(Cl)nc(NCCn3c(O)c(N=Nc4cc(C(=O)O)ccc4C(=O)O)c(C(F)(F)F)c(C#N)c3=O)n2)c(=O)c1C#N` [Compound 250], for which, in series [1], the “(A)-1 light fastness-1” value is on record as “⊚”. The “(A)-2 light fastness-2” value in series [2] is given as “◯”. For the same compound, in series [3], the “(B) moisture resistance” value is given as “⊚”. Further, in series [4], the “(C) storage stability” value is reported as “Δ”.
For `Cc1c(N=Nc2c(C(=O)O)cccc2C(=O)O)c(O)n(CCNc2nc(Cl)nc(NCCn3c(O)c(N=Nc4c(C(=O)O)cccc4C(=O)O)c(C)c(C#N)c3=O)n2)c(=O)c1C#N` [Compound 256], in series [1], the “(A)-1 light fastness-1” value was “⊚”. In addition, the “(A)-2 light fastness-2” value in series [2] is given as “◯”. Also, the “(B) moisture resistance” value in series [3] was “⊚”. Besides, in series [4], the “(C) storage stability” value is reported as “Δ”.
Take `N#Cc1c(-c2ccccc2)c(N=Nc2cc(C(=O)O)ccc2C(=O)O)c(O)n(CCNc2nc(Cl)nc(NCCn3c(O)c(N=Nc4cc(C(=O)O)ccc4C(=O)O)c(-c4ccccc4)c(C#N)c3=O)n2)c1=O` [Compound 261]: in series [1], the “(A)-1 light fastness-1” value was “⊚”. Also, the “(A)-2 light fastness-2” value in series [2] was “◯”. The “(B) moisture resistance” value in series [3] was “⊚”. In series [4], the “(C) storage stability” value is recorded as “Δ”.
As for `CC(C)(C)c1c(N=Nc2cc(C(=O)O)ccc2C(=O)O)c(O)n(CCn2c(=O)c3cc4c(=O)n(CCn5c(O)c(N=Nc6cc(C(=O)O)ccc6C(=O)O)c(C(C)(C)C)c(C#N)c5=O)c(=O)c4cc3c2=O)c(=O)c1C#N` [Compound 336], in series [1], the “(A)-1 light fastness-1” value is “⊚”. For the same compound, the “(A)-2 light fastness-2” value in series [2] is “⊚⊚”. Moreover, the “(B) moisture resistance” value in series [3] is “⊚”. In addition, in series [4], the “(C) storage stability” value is recorded as “◯”.
For `CCc1c(N=Nc2cc(C(=O)O)ccc2C(=O)O)c(O)n(CCNC(=O)c2ccc(C(=O)NCCn3c(O)c(N=Nc4cc(C(=O)O)ccc4C(=O)O)c(CC)c(C#N)c3=O)c(C(=O)NCCn3c(O)c(N=Nc4cc(C(=O)O)ccc4C(=O)O)c(CC)c(C#N)c3=O)c2)c(=O)c1C#N` [Compound 308], the “(A)-1 light fastness-1” value in series [1] is given as “⊚”. Further, the “(A)-2 light fastness-2” value in series [2] is recorded as “⊚”. For the same compound, the “(B) moisture resistance” value in series [3] was “⊚”. Also, the “(C) storage stability” value in series [4] is “Δ”.
Take `Cc1c(N=Nc2cc(C(=O)O)ccc2C(=O)O)c(O)n(CCC(=O)O)c(=O)c1C#N` [compound 78]: the “(A)-1 light fastness-1” value in series [1] is given as “⊚”. The “(A)-2 light fastness-2” value in series [2] (NH(CH2CH=CH2)3 salt form) is given as “◯”; in series [2] (Na salt form) it was “⊚”. In series [3], the “(B) moisture resistance” value was “◯”. The “(C) storage stability” value in series [4] was “◯”.
Regarding `Cc1c(N=Nc2cc(C(=O)O)ccc2C(=O)O)c(O)n(CCNC(=O)c2ccc(C(=O)NCCn3c(O)c(N=Nc4cc(C(=O)O)ccc4C(=O)O)c(C)c(C#N)c3=O)c(C(=O)NCCn3c(O)c(N=Nc4cc(C(=O)O)ccc4C(=O)O)c(C)c(C#N)c3=O)c2)c(=O)c1C#N` [Compound 305], the “(A)-1 light fastness-1” value in series [1] is given as “⊚”. The “(A)-2 light fastness-2” value in series [2] was “⊚”. For the same compound, the “(B) moisture resistance” value in series [3] is “⊚”. Also, the “(C) storage stability” value in series [4] is recorded as “Δ”.
In the case of `Cc1c(N=Nc2cccc(C(=O)O)c2C(=O)O)c(O)n(CC(O)C(O)C(O)C(O)C(O)CO)c(=O)c1C#N` (centres unmarked) [compound 29], the “(A)-1 light fastness-1” value in series [1] is recorded as “⊚”. In addition, the “(A)-2 light fastness-2” value in series [2] is “◯ and Δ”. Further, the “(B) moisture resistance” value in series [3] is “◯”. Moreover, the “(C) storage stability” value in series [4] is “◯ and Δ”.
Take `Cc1c(N=Nc2cc(C(=O)O)ccc2C(=O)O)c(O)n(CCNc2nc(Cl)nc(NCCn3c(O)c(N=Nc4cc(C(=O)O)ccc4C(=O)O)c(C)c(C#N)c3=O)n2)c(=O)c1C#N` [Compound No. 245]: in series [1], the “(A)-1 light fastness-1” value is given as “⊚”. For the same compound, in series [2], the “(A)-2 light fastness-2” value is recorded as “◯”. Also, the “(B) moisture resistance” value in series [3] is listed as “⊚”. For the same compound, the “(C) storage stability” value in series [4] is listed as “◯”.
